In US12624067B2, “Cyclic peptide, cell scaffold material, cell separating material, and medium” (FUJIFILM Corporation, priority 2019, dated 2026):
Read-outs that look alike come from different tables or passages of the source. Numbered stars: 1 amine (or outer) side, 2 acyl side, 3 side chain; on linkers, the order of the positions; unused ones are H or OH. Bridge positions count the residues as written; N and C are the ends. Square brackets hold non-standard residues; d marks the D form. Peptide text beside a SMILES is read from it. hCys = N[C@@H](CCS)C(=O)O; Orn = NCCC[C@H](N)C(=O)O; X1 = O=C(C[*:1])[*:2]

Assays:
human integrin αvβ5 = human integrin αvβ5 (Homo sapiens, UniProt P06756+P18084); assay: Evaluation of integrin binding property (surface plasmon resonance, Biacore 3000, immobilized cyclic peptide)
human integrin αvβ5, sequence (P06756 31-889 limits assumed): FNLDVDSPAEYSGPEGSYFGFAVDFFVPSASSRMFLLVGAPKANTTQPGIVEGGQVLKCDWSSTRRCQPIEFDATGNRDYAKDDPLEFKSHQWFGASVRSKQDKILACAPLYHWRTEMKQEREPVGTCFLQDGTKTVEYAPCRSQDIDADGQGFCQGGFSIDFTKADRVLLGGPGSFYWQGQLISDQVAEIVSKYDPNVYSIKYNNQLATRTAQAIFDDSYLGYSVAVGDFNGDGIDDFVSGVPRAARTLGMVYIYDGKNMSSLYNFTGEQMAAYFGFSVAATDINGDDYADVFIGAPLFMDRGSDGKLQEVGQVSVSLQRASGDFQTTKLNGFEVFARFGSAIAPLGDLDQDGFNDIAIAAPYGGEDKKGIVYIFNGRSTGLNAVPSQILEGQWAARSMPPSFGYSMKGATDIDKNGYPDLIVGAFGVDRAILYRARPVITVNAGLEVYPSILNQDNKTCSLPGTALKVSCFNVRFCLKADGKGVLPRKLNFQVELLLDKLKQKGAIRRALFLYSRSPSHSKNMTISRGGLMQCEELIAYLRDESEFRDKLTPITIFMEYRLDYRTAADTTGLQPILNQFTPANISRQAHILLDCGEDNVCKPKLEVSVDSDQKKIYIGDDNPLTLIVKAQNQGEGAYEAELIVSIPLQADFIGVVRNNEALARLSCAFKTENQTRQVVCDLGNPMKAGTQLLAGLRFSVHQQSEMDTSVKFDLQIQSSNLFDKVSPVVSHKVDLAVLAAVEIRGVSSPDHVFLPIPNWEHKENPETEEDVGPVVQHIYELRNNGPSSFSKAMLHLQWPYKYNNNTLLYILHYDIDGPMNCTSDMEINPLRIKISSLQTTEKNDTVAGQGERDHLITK
human integrin αvβ5, sequence (P06756 891-1048 partner limits assumed): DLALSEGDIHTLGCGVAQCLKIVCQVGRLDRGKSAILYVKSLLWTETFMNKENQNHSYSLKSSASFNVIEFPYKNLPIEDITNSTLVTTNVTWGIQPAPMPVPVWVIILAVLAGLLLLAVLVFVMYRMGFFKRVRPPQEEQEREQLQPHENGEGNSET
human integrin αvβ5, sequence (P18084 24-799): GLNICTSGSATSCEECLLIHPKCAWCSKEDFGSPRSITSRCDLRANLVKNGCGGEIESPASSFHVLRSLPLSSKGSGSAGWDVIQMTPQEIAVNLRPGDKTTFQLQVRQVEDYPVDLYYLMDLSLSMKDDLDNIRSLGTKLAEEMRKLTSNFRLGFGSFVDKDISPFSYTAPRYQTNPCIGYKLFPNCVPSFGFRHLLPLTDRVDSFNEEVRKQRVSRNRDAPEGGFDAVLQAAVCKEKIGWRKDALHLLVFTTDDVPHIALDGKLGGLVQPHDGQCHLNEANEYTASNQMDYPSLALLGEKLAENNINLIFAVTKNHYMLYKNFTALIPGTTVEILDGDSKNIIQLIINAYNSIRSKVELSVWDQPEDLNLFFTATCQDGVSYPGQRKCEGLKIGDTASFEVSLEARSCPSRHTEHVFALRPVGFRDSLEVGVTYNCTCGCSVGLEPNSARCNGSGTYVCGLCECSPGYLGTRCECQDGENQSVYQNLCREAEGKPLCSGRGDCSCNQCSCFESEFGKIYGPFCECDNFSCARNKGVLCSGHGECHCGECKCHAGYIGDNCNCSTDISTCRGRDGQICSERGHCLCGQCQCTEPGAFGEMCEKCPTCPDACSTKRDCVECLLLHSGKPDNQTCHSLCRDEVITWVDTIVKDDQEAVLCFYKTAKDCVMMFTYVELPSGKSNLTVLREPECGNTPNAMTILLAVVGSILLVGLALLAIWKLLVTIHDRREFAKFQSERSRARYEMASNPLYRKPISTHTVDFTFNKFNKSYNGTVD
How it was run: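 Cyclic peptides amine-coupled to a CM5 chip via EDC/NHS, with a blank reference channel; integrin injected 10 min at 25 °C at 30, 100, 300 and 1,000 nM in HEPES pH 7.4, 150 mM NaCl, 5 mM MgCl2, then 30 min buffer flow, EDTA regeneration. Kd from reference-subtracted responses, graded by category.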

[1] = Evaluation of molecule stability (alkali treatment, LC/MS residual rate); format: physicochemical; settings: 500 μM peptide plus equivalent of 1 M sodium hydroxide, 15° C., 20 minutes, LC/MS peak area
How it was run: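 Cyclic peptide at 500 μM in water treated with an equivalent of 1 M NaOH for 20 minutes at 15° C. Residual rate is the total LC/MS peak area after treatment relative to that before treatment, set as 100%. Analysis on a C18 column at 45° C with ammonium formate pH 3 eluents and ESI detection.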

[2] = peptide immobilized on CM5 sensor chip, human integrin αvβ5 30-1,000 nM, 25° C., HEPES buffer with 5 mM magnesium chloride, read-out: Integrin binding property (dissociation constant)

| Kd (human integrin αvβ5; [2]) [µM] | Structure (SMILES) | Molecule stability (cyclic peptide residual rate) [1] | Kd (human integrin αvβ5) [µM] |
| --- | --- | --- | --- |
| < 0.05 | N=C(N)NCCC[C@@H]1NC(=O)[C@@H]2CCSCC(=O)NCCC[C@H](NC(=O)[C@H](CC(=O)O)NC(=O)CNC1=O)C(=O)N[C@@H](Cc1ccccc1)C(=O)N[C@H](C(=O)N[C@@H](CCCCN)C(=O)N[C@@H](CCCCN)C(=O)N[C@@H](CCCCN)C(=O)O)CCSCC(=O)N[C@@H](CCC(=O)O)C(=O)N2 [Cyclic peptide 43] ({CH2CO}-E[hCys]RGD[Orn]F[hCys]KKK-OH; linker 2-6 via X1; thioether N-8) | A (The residual rate of the cyclic peptide is 70% or more.) | – |
| < 0.05 | CC(C)[C@@H]1NC(=O)CSCC[C@@H](C(=O)N[C@@H](C)C(=O)N[C@@H](CCCCN)C(=O)N[C@@H](CCCCN)C(=O)N[C@@H](CCCCN)C(=O)O)NC(=O)[C@H](Cc2ccccc2)NC(=O)[C@@H]2CCCCNC(=O)CSCC[C@H](NC1=O)C(=O)N[C@@H](CCCNC(=N)N)C(=O)NCC(=O)N[C@@H](CC(=O)O)C(=O)N2 [Cyclic peptide 44] ({CH2CO}-V[hCys]RGDKF[hCys]AKKK-OH; linker 2-6 via X1; thioether N-8) | A (The residual rate of the cyclic peptide is 70% or more.) | – |
| < 0.05 | C[C@H](NC(=O)[C@@H]1CCSCC(=O)N[C@@H](CC(=O)O)C(=O)N[C@H]2CCSCC(=O)NCCCC[C@H](NC(=O)[C@H](CC(=O)O)NC(=O)CNC(=O)[C@H](CCCNC(=N)N)NC2=O)C(=O)N[C@@H](Cc2ccccc2)C(=O)N1)C(=O)N[C@@H](CCCCN)C(=O)N[C@@H](CCCCN)C(=O)N[C@@H](CCCCN)C(=O)O [Cyclic peptide 45] ({CH2CO}-D[hCys]RGDKF[hCys]AKKK-OH; linker 2-6 via X1; thioether N-8) | A (The residual rate of the cyclic peptide is 70% or more.) | – |
| < 0.05 | C[C@H](NC(=O)[C@@H]1CCSCC(=O)N[C@@H](CCC(=O)O)C(=O)N[C@H]2CCSCC(=O)NCCCC[C@H](NC(=O)[C@H](CC(=O)O)NC(=O)CNC(=O)[C@H](CCCNC(=N)N)NC2=O)C(=O)N[C@@H](Cc2ccccc2)C(=O)N1)C(=O)N[C@@H](CCCCN)C(=O)N[C@@H](CCCCN)C(=O)N[C@@H](CCCCN)C(=O)O [Cyclic peptide 46] ({CH2CO}-E[hCys]RGDKF[hCys]AKKK-OH; linker 2-6 via X1; thioether N-8) | A (The residual rate of the cyclic peptide is 70% or more.) | – |
| < 0.05 | C[C@H](NC(=O)[C@@H]1CCSCC(=O)N[C@@H](CCC(=O)O)C(=O)N[C@H]2CCSCC(=O)NCCC[C@H](NC(=O)[C@H](CC(=O)O)NC(=O)CNC(=O)[C@H](CCCNC(=N)N)NC2=O)C(=O)N[C@@H](Cc2ccccc2)C(=O)N1)C(=O)N[C@@H](CCCCN)C(=O)N[C@@H](CCCCN)C(=O)N[C@@H](CCCCN)C(=O)O [Cyclic peptide 47] ({CH2CO}-E[hCys]RGD[Orn]F[hCys]AKKK-OH; linker 2-6 via X1; thioether N-8) | A (The residual rate of the cyclic peptide is 70% or more.) | – |
| – | C[C@H](N)C(=O)N[C@H]1CSSC[C@@H](C(=O)NCC(=O)N[C@@H](CCCCN)C(=O)N[C@@H](CCCCN)C(=O)N[C@@H](CCCCN)C(=O)O)NC(=O)[C@H](Cc2ccccc2)NC(=O)[C@@H]2CSSC[C@H](NC(=O)[C@H](CC(=O)O)NC1=O)C(=O)N[C@@H](CCCNC(=N)N)C(=O)NCC(=O)N[C@@H](CC(=O)O)C(=O)N2 [Cyclic peptide 49, ACDCRGDCFCGKKK, reference compound] (H-ACDCRGDCFCGKKK-OH; disulfide 2-10, 4-8) | D (The residual rate of the cyclic peptide is less than 30%.) | < 0.05 |
